What was measured:
Xenopus oocytes = experiment: Xenopus oocyte maturation assay; assay type: cell-based; conditions: for Xenopus Oocyte Maturation Assay, With Progesterone: test compound 100 μM, progesterone 2 μg/mL, inhibitor = slowed rate of progesterone-dependent GVBD by 20% or more
Source text: An in vivo Xenopus oocyte maturation assay was used to screen the compounds for their ability to modulate the activity of cell cycle control proteins, mRNA translational control proteins, and/or proteins involved in signaling pathways. In this assay, oocyte maturation (or cell cycle progression) is monitored phenotypically using an image capture system. Oocyte maturation is correlated with the appearance of a white spot at the animal pole of the darkly pigmented animal hemisphere of the oocyte. The white spot appears because the germinal vesicle (i.e., the large nucleus of the oocyte) migrates to the animal pole prior to meiotic germinal vesicle breakdown (GVBD).
Immature stage VI Xenopus oocytes were transferred to wells of a flat bottom 96-well plate containing about 178 μL of L15 culture media. The oocytes were transferred using wide mouth 200 μL pipette tips with minimal transfer of culture medium (e.g., about 20 μL). Generally, the oocytes oriented with the pigmented animal hemisphere facing up due to the higher density of the yolk-containing vegetal hemisphere. Incorrectly orientated oocytes were gently manipulated using a drawn-out capillary tube to rotate them into the correct orientation.
Forty-four test compounds were dissolved in DMSO to make 100× stock solutions. The test compounds were added to the appropriate wells at a final concentration of 100 μM (and 1% DMSO). Control oocytes were exposed to 1% DMSO only (generally the first and last wells of a plate contained the untreated, control oocytes). Sixteen hours later, progesterone was added to each well to stimulate progesterone-dependent oocyte maturation. For this, 2 μL of 1000× stock solution (2 mg/mL in ethanol) was added to the appropriate wells to yield a final concentration of 2 μg/mL. The rate of maturation in the control oocytes (i.e., those in the first and last wells) served as an intra-assay control for time taken for progesterone addition across the multi-well plate.
The 96-well plate was imaged from above (i.e., top-down) using a 36-megapixel Nikon D800 SLR camera with an AF Micro Nikkor 60 mm, f/2.8 lens, mounted on a dedicated copy stand (with adjustable flanking light sources). The plate was imaged prior to and after addition of progesterone (i.e., images were taken at regular intervals over a period of 7 hours). The high resolution images were digitally zoomed after capture to analyze the maturation status of oocytes in individual wells of the plate. Test compounds that slowed the rate of progesterone-dependent GVBD by 20% or more were classified as inhibitors (assessed relative to the time 50% of the population of control, vehicle treated oocytes had undergone GVBD (GVBD50)).
To determine whether the test compounds were able to activate oocyte maturation in a progesterone-independent manner, oocytes were incubated in the presence of the test compound (dissolved in DMSO) or DMSO only. The oocytes were imaged at regular intervals for the evidence of GVBD, or subsets of oocytes were removed at predetermined times and the activation status of key cell cycle control proteins (e.g., pMAP kinase, pCcd2, etc.) was analyzed by Western blotting. For example, activation of pMAP kinase is associated with increased phosphorylation whereas activation of pCdc2 is associated with decreased phosphorylation. Compounds were classified as an activator if they were able to induce GVBD in the absence of added progesterone. Further, compounds were classified as accelerators if they accelerated the rate of progesterone-stimulated GVBD, but were unable to induce GVBD in the absence of progesterone. The criteria for test compounds to be considered accelerators is that they must increase the rate of progesterone-dependent GVBD by 20% or more at one dose (assessed relative to the time 50% of the population of control, vehicle treated oocytes had undergone GVBD (GVBD50)).

MCF-7 cells = experiment: Mammosphere formation, MCF-7; assay type: cell-based; conditions: compound present first 3 days, scored day 14 (P2), 50, 5 and 0.5 μM
Source text: Mammosphere culture growth presents a useful indicator of the presence of breast cancer cells with stem cell-like properties. Breast cancer cell lines grown as mammospheres (under non-adherent plating conditions) recapitulate the three-dimensional organization of tumors. Importantly, assessment of stem cell self-renewal capacity can be achieved through dispersion of mammospheres to single cells and subsequent limited dilution replating. To determine whether PNR-5-46, PNR-5-41, or JVM-20 inhibited mammosphere formation in this system, […], and then cultured in the absence of the test compound. At day 7, mammospheres were collected, dispersed to single cells and replated at limiting dilution (P1). Spheroids were scored at day 14 (P2). Mammosphere forming units (MFUs) are defined as spheroid bodies >100 μm (MCF-7 cells) or >65 μm (MDA MB231 cells) diameter after 7 (P1) or 14 (P2) days growth in non-adherent culture.

[1] = test system: neuroblastoma cell line SHSY5Y; experiment: Neurosphere formation, SHSY5Y; assay type: cell-based; conditions: lowest dose tested 0.5 μM
Description: (§1) The activity of the three test compounds to inhibit neurosphere formation was also tested in a neuroblastoma cell line SHSY5Y and a glioblastomoa cell line U87. All three compounds attenuated neurosphere formation in both cell lines, to varying degrees of efficacy (FIG. 2A,B). […] None of the compounds affected cell viability.

[2] = test system: glioblastomoa cell line U87; experiment: Neurosphere formation, U87; assay type: cell-based; conditions: lowest dose tested 0.5 μM
Description: as §1

Work on `C[C@@]12CCC=C(CO)C3C[C@H]4/C(=C\c5ccccc5)C(=O)O[C@@H]4[C@@]31O2` (stereo partly shown) yielded a melting point of 115 to 117 °C.
For “13-(4-aminophenyl)parthenolide [PNR-5-41]”, the “Xenopus Oocyte Maturation Assay, With Progesterone” value (Xenopus oocytes) was “Inhibitor”, the “mammosphere formation relative to DMSO-treated control cells” value (MCF-7 cells) was “did not” and the “neurosphere formation / stem cell self-renewal” value [1] was “Significant inhibition”. The “neurosphere formation / stem cell self-renewal” value [2] was “Significant inhibition”.
In the case of `C/C1=C\CC[C@@]2(C)O[C@H]2[C@H]2OC(=O)[C@@H](CNc3nc4ccccc4[nH]3)[C@@H]2CC1` [JVM-9, 13-(2-aminobenzimidazole)parthenolide], the “Xenopus Oocyte Maturation Assay, Without Progesterone” value (Xenopus oocytes; no progesterone, activator = able to induce GVBD in the absence of added progesterone) was “Activator”.
In the case of `CC1=CCCC2(C)OC2C2OC(=O)C(CNCCN3CCOCC3)C2CC1` (stereo not shown) [JVM-11, 13-(aminoethylmorpholino)parthenolide], the “Xenopus Oocyte Maturation Assay, With Progesterone” value (Xenopus oocytes) was “Inhibitor”.

Reference: patent publication US20160083397A1, “PARTHENOLIDE DERIVATIVES AND THEIR MODULATION OF PROCESSES CONTROLLED BY REGULATED TRANSLATION” (THE BOARD OF TRUSTEES OF THE UNIVERSITY OF ARKANSAS, priority 2013, published 2016)
